# “Also recorded” adds a separate entry of the source.
# Tests used:
# [1] = tested on: C. elegans (acs-20 cuticle defective mutant); test: C. elegans body length assay; assay type: in vivo, Caenorhabditis elegans; settings: 100 μM synthetic As-FLP-18A, 96 h, 20 °C, vs S-medium, n > 9 nematodes
# [2] = tested on: C. elegans (acs-20 cuticle defective mutant); test: wMicroTracker motility assay; assay type: in vivo, Caenorhabditis elegans; settings: 10 μM synthetic As-FLP-18A, M9, 12 h, n > 4 wells
# A. suum ovijector tissue = test: Ascaris suum ovijector bioassay
# [3] = synthetic As-FLP-18A, 10 μM, HBSS, 10 min
Substance,C. elegans growth (body length) [1],C. elegans motility (locomotory activity) [2],"effect on ovijector muscle (A. suum ovijector tissue; synthetic As-FLP-18A, 1 nM to 10 μM, 10 min)","effect on ovijector muscle (A. suum ovijector tissue; synthetic As-FLP-18A, 10 nM to 1 μM)","response type (RT) on ovijector (A. suum ovijector tissue; synthetic As-FLP-18A, 1 μM to 10 nM, 10 min)","effect on ovijector muscle (A. suum ovijector tissue; synthetic As-FLP-18A, 1 μM, RT-2-like)",preparations with RT-1 response (A. suum ovijector tissue; [3]),preparations with RT-2 response (A. suum ovijector tissue; [3]),"effect on ovijector contractility (A. suum ovijector tissue; truncated synthetic peptide GFGDEMSMPGVLR, 10 μM)"
GFGDEMSMPGVLRF-NH2 [As-FLP-18A],this effect was mirrored; also recorded: significantly reduced,significant inhibition of locomotion; also recorded: significantly reduced,concentration dependent myoexcitatory effects,consistent excitatory effects,RT-2 responses only,transient muscle contraction followed by muscle paralysis,64.2 % of preparations,35.7 % of preparations,–
GFGDEMSMPGVLR [truncated As-FLP-18A],–,–,–,–,–,–,–,–,lacks biological activity in A. suum muscle physiology assays

# From PMC12955800 (ACS chemical neuroscience, 2021)
